According to BindingDB's records for patent US12473304 (Bristol-Myers Squibb, 2025):

What follows are molecules tested against Protein-arginine deiminase type-4 (Homo sapiens, UniProt Q9UM07) (assay: RFMS Human PAD4 Functional Assay 1).
Chain of Protein-arginine deiminase type-4 (Q9UM07 whole entry): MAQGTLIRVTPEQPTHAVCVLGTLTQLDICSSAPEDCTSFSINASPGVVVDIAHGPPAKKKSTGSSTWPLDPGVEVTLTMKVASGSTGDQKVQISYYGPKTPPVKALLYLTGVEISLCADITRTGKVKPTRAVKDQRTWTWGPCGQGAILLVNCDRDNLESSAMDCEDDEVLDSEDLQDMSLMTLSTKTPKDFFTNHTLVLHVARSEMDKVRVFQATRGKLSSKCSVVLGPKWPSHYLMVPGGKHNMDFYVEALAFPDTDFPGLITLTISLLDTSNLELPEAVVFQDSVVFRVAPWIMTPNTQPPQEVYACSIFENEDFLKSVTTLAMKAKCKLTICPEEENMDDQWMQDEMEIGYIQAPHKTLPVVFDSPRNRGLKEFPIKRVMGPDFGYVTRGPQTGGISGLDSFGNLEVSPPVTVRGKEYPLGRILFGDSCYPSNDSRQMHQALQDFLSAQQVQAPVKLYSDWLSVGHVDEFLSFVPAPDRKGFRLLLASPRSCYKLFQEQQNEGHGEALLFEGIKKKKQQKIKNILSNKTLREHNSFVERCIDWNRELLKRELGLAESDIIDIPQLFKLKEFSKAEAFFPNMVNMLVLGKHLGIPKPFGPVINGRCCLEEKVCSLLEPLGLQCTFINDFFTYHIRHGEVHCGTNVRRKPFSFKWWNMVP
Protocol: Reaction volume: 26 μlAssay buffer: 25 mM hepes, pH 7.5, 5 mM NaCl, 1 mM DTT, 0.2 mg/ml BSA, 0.01% CHAPS, 50 μM Calcium, and 5 μM TPENFinal concentrations: 5 nM hPAD4 enzyme, 250 μM BASE, and 0.5% DMSOTotal incubation time: 30 mins compound and enzyme preincubation at 37° C., 90 min enzyme/substrate reaction, 30 min reaction with phenyl glyoxal at 37° C.Stop solution: 40 μl 5% TCA in ACN0.13 μL of compound solution was added to 13 μL of 10 nM PAD4 in assay buffer. After 30 min 13 μl of 500 μM of BAEE was added in 25 mM hepes, pH 7.5, 5 mM NaCl, 1 mM DTT, 0.2 mg/ml BSA, 0.01% CHAPS, 50 μM Calcium, 5 μM TPEN was added and the reaction incubated for 90 min at 37° C. The enzymatic reaction was quenched by addition of 15 μl of 6.1N TCA, 100% Final Concentration is 20%, 35 μl of 8.5 mM phenyl glyoxal (final concentration 4 mM) is then added and the reaction is incubated for 30 min at 37° C.After 30 minutes the plates are spun down to remove all precipitate. The enzyme reaction was quenched with an equal volume of methanol containing internal standard (modified citrulline). Samples were loaded onto the Rapid Fire RF300 system (Agilent) wherein they were first sipped for 1000 ms and then directly loaded to a C18 separations cartridge using a mixture of acetonitrile containing 0.01% formic acid for 3000 ms desalting. The flow rate of the mobile phase was 1.5 ml/min. Once the samples were eluted from the cartridge, a mobile phase of acetonitrile containing 0.01% formic acid was used to move the samples into the mass spectrometer for 4000 ms at a flow rate of 1.25 ml/min/Sciex API5500 triple quadrupole mass spectrometer (Applied Biosystems) equipped with ESI was used to analyze the peptidyl citrulline and internal standard ions.
For `COc1cc(C(=O)N2C[C@H](N)C[C@@H](F)C2)cn2nc(-c3cc4ccc(Cl)nc4n3CC3CC3)c(C)c12` [US12473304, Example 15], the IC50 was 526 nM.
In the case of `Cc1c(-c2cc3ccc(-c4ccc5c(c4)CNC5=O)nc3n2CC2CC2)nn2cc(C(=O)N3CC4CCC3[C@@H]4N)ccc12` (stereo not given in full) [US12473304, Example 64], the IC50 is reported as 55 nM.
With `COc1cc(C(=O)N2CC3CCC2[C@@H]3N)cn2nc(-c3cc4ccc(C(C)(C)O)cc4n3CC3CC3)c(C)c12` (stereo not given in full) [US12473304, Example 97] the IC50 was 30 nM.
Molecule `COc1cc(C(=O)N2C[C@H](N)C[C@@H](F)C2)cn2nc(-c3cc4ccc(-c5cc(F)c(C(N)=O)cc5C)nc4n3CC3CC3)c(C)c12` [US12473304, Example 207] has an IC50 of 150 nM.
`COc1cc(C(=O)N2CCC[C@@H](N)C2)cn2nc(-c3cc4ccc(-c5cc(F)c(C(N)=O)cc5C)nc4n3CC3CC3)c(C)c12` [US12473304, Example 208] gave an IC50 of 140 nM.
